Source: article PMC11247503 (Journal of Medicinal Chemistry, 2024)
Where a name gives a salt, the structure may show the parent alone.

Target: T1, mouse Spns2 (Mus musculus, UniProt Q91VM4)
T1 construct: expressed in transfected cells; host or cells: HeLa cells (G418-resistant pools)
T1 sequence (Q91VM4 1-549): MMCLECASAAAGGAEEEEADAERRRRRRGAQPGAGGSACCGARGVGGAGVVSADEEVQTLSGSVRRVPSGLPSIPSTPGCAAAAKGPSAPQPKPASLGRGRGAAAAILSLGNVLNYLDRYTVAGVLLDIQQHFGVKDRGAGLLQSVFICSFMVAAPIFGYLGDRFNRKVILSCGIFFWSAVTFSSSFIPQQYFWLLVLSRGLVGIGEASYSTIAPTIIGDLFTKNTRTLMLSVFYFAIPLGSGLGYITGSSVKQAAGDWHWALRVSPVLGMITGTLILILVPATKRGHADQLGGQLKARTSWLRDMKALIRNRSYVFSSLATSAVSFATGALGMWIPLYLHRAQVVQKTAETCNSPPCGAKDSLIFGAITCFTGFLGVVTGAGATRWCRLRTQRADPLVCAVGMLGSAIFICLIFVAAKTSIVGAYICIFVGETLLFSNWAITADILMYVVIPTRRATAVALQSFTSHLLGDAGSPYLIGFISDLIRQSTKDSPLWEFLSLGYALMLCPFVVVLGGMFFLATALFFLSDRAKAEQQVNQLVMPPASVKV
Assay: HeLa cell S1P release assay (Spns2 inhibition)
Format: cell-based
Conditions: 1 μM inhibitor; HeLa cells; S1P in media by LC-MS/MS
Description: With a library of analogs of SLB1122168 containing phenylurea, phenylcarbamate, and benzamide as bioisostere of the benzoxazole, we investigated their potential in inhibiting S1P transport using a HeLa cell assay.[36]−[38],[43] Briefly, in this assay, Spns2 is overexpressed whereas the S1P-degrading enzymes (lyase or phosphatases) were blocked with inhibitors.[44],[45] Inhibition of S1P transport is determined by measuring the amount of S1P in the buffer using LC-MS.
This assay was conducted as reported by Kharel et al.[43] Briefly, compounds were assessed in a HeLa cell assay at a 1 μM test concentration, unless noted otherwise. HeLa cells were transfected with a pcDNA3.1 plasmid encoding mouse Spns2, and pools of cells resistant to G418 were selected. S1P catabolic pathways were suppressed by the addition of 4-deoxypyridoxine (1 mM), NaF (2 mM), and Na3VO4 (0.2 mM). After growing cells to near confluence on 12-well tissue culture dishes, growth media was removed, inhibitors were introduced in release media (serum free medium containing 0.2% fatty acid free BSA), and the cells were incubated for 16–18 h at 37 °C. The BSA with bound S1P was concentrated from the release media by TFA-driven precipitation after addition of the d7-S1P internal standard, the S1P extracted from the protein pellet, and quantified by LC-MS/MS. Lower levels of S1P release into the media indicated greater degrees of Spns2 inhibition. Inhibition is reported as the percent decrease in S1P release relative to the control where no inhibitor was introduced.

Row | Compound | %Inhib. (Spns2 inhibition, percent decrease in S1P secretion relative to control) [%]
1 | 2-Aminoethyl (4-Decylphenyl)carbamate Hydrochloride [8a] | 44 ± 7

Same assay, conditions: 1 μM inhibitor; HeLa cells; S1P in media by LC-MS/MS; 1 µM

Row | %Inhib. (Spns2 inhibition, percent decrease in S1P secretion relative to control) [%] | Compound
2 | 66 ± 1 | CCCCCCCCCCc1ccc(C(=O)N[C@@H]2CCNC2)cc1.Cl [(R)-4c, (R)-4-Decyl-N-(pyrrolidin-3-yl)benzamide Hydrochloride]
3 | 61 ± 5 | CCCCCCCCCCc1ccc(C(=O)N[C@H]2CCNC2)cc1.Cl [(S)-4d, (S)-4-Decyl-N-(pyrrolidin-3-yl)benzamide Hydrochloride]

Same assay, conditions: HeLa, 0.3 μM inhibitor (Figure 5); HeLa cells; read-out: % Inhibition, tail homologation study

Row | inhibition at 0.3 µM [%] | Compound
4 | 48 ± 7 | CCCCCCCCc1ccc(NC(=O)N2CCNCC2)cc1 [20c, N-(4-Octylphenyl)piperazine-1-carboxamide Hydrogen Chloride]
5 | 28 ± 5 | CCCCCCCc1ccc(NC(=O)N2CCNCC2)cc1 [20b, N-(4-Heptylphenyl)piperazine-1-carboxamide Hydrogen Chloride]
6 | 61 ± 4 | CCCCCCCCCc1ccc(NC(=O)N2CCNCC2)cc1 [20d, N-(4-Nonylphenyl)piperazine-1-carboxamide Hydrogen Chloride]
7 | 76 ± 5 | CCCCCCCCCCCc1ccc(NC(=O)N2CCNCC2)cc1 [20e, N-(4-Undecylphenyl)piperazine-1-carboxamide Hydrogen Chloride]
8 | 57 ± 1 | CCCCCCCCCCCCc1ccc(NC(=O)N2CCNCC2)cc1 [20f, N-(4-Dodecylphenyl)piperazine-1-carboxamide Hydrogen Chloride]
9 | 27 ± 12 | CCCCCCCCCCCCCc1ccc(NC(=O)N2CCNCC2)cc1 [20g, N-(4-Tridecylphenyl)piperazine-1-carboxamide Hydrogen Chloride]
10 | 19 ± 2 | CCCCCCc1ccc(NC(=O)N2CCNCC2)cc1 [20a, N-(4-Hexylphenyl)piperazine-1-carboxamide Hydrogen Chloride]

Same assay, conditions: HeLa, 1 μM inhibitor; HeLa cells; S1P in media by LC-MS/MS; read-out: %Inhib. (Spns2 inhibition, percent decrease in S1P secretion relative to control)

Row | Compound | inhibition at 1 µM [%]
11 | CCCCCCCCCCc1ccc(C(=S)N[C@@H]2CCNC2)cc1 [(R)-15b, (R)-4-Decyl-N-(pyrrolidin-3-yl)benzothioamide Hydrochloride] | 33 ± 3
12 | CCCCCCCCCCc1ccc(NC(=O)N2CC3CCC(C2)N3)cc1 [11k, N-(4-Decylphenyl)-3,8-diazabicyclo[3.2.1]octane-3-carboxamide Hydrochloride] | 77
13 | CCCCCCCCCCc1ccc(NC(=O)O[C@@H]2CCNC2)cc1 [(R)-8b, (R)-Pyrrolidin-3-yl (4-Decylphenyl)carbamate Hydrochloride] | 68 ± 1
14 | CCCCCCCCCCc1ccc(C(=O)N[C@@H]2CCCNC2)cc1 [(R)-4e, (R)-4-Decyl-N-(piperidin-3-yl)benzamide Hydrochloride] | 73 ± 1
15 | CCCCCCCCCCc1ccc(NC(=O)N[C@H]2CCCNC2)cc1 [(S)-11f, (S)-1-(4-Decylphenyl)-3-(piperidin-3-yl)urea Hydrochloride] | 78 ± 4
16 | CCCCCCCCCCc1ccc(C(=O)N2CC3CCC(C2)N3)cc1 [4k, (3,8-Diazabicyclo[3.2.1]octan-3-yl)(4-decylphenyl)methanone Hydrochloride] | 0
17 | CCCCCCCCCCc1ccc(NC(=O)N2CCN[C@H](C)C2)cc1 [(R)-11l, (R)-N-(4-Decylphenyl)-3-methylpiperazine-1-carboxamide Hydrochloride] | ≥ 80
18 | CCCCCCCCCCc1ccc(C(=O)N(C)[C@@H]2CCNC2)cc1 [(R)-13b, (R)-4-Decyl-N-methyl-N-(pyrrolidin-3-yl)benzamide Hydrochloride] | 21 ± 1
19 | CCCCCCCCCCc1ccc(NC(=O)N[C@@H]2CCNC2)cc1 [(R)-11c, (R)-1-(4-Decylphenyl)-3-(pyrrolidin-3-yl)urea Hydrochloride] | 49
20 | CCCCCCCCCCc1ccc(NC(=O)O[C@@H]2CCCNC2)cc1 [(R)-8d, (R)-Piperidin-3-yl (4-Decylphenyl)carbamate Hydrochloride] | 45 ± 3
21 | CCCCCCCCCCc1ccc(C(=O)N[C@@H]2CCNC2)cc1.Cl [(R)-4c, (R)-4-Decyl-N-(pyrrolidin-3-yl)benzamide Hydrochloride] | 61 to 66
22 | CCCCCCCCCCc1ccc(C(=O)N2CCNCC2)cc1 [4h, (4-Decylphenyl)(piperazin-1-yl)methanone Hydrochloride] | 68 ± 5
23 | CCCCCCCCCCc1ccc(C(=O)N2CC3CC2CN3)cc1 (stereo not shown) [4l, (2,5-Diazabicyclo[2.2.1]heptan-2-yl)(4-decylphenyl)methanone Hydrochloride] | 25 ± 2
24 | CCCCCCCCCCc1ccc(C(=O)N(C)[C@@H]2CCCNC2)cc1 [(R)-13c, (R)-4-Decyl-N-Methyl-N-(piperidin-3-yl)benzamide Hydrochloride] | 51 ± 2
25 | CCCCCCCCCCc1ccc(NC(=O)O[C@H]2CCCNC2)cc1 [(S)-8e, (S)-Piperidin-3-yl (4-Decylphenyl)carbamate Hydrochloride] | 48 ± 2
26 | CCCCCCCCCCc1ccc(NC(=O)N[C@H]2CCNC2)cc1 [(S)-11d, (S)-1-(4-Decylphenyl)-3-(pyrrolidin-3-yl)urea Hydrochloride] | 44 ± 2
27 | CCCCCCCCCCc1ccc(C(=O)N[C@H]2CCCNC2)cc1 [(S)-4f, (S)-4-Decyl-N-(piperidin-3-yl)benzamide Hydrochloride] | 20 ± 3
28 | CCCCCCCCCCc1ccc(C(=O)N[C@H]2CCNC2)cc1.Cl [(S)-4d, (S)-4-Decyl-N-(pyrrolidin-3-yl)benzamide Hydrochloride] | 61 to 66
29 | CCCCCCCCCCc1ccc(C(=O)NC2CCNCC2)cc1 [4g, 4-Decyl-N-(piperidin-4-yl)benzamide Hydrochloride] | 24 ± 2
30 | CCCCCCCCCCc1ccc(C(=O)N2CCNCC2C)cc1 (racemic) [(±)-4j, (4-Decylphenyl)(2-methylpiperazin-1-yl)methanone Hydrochloride] | 61 ± 2
31 | CCCCCCCCCCc1ccc(NC(=O)O[C@H]2CCNC2)cc1 [(S)-8c, (S)-Pyrrolidin-3-yl (4-Decylphenyl)carbamate Hydrochloride] | 46
32 | CCCCCCCCCCc1ccc(N(C)C(=O)N2CC3CCC(C2)N3)cc1 [17c, N-(4-Decylphenyl)-N-methyl-3,8-diazabicyclo[3.2.1]octane-3-carboxamide Hydrochloride] | 18 ± 1
33 | CCCCCCCCCCc1ccc(C(=S)N[C@@H]2CCCNC2)cc1 [(R)-15c, (R)-4-Decyl-N-(piperidin-3-yl)benzothioamide Hydrochloride] | 47
34 | CCCCCCCCCCc1ccc(C(=O)NCCCN)cc1 [4a, N-(3-Aminopropyl)-4-decylbenzamide Hydrochloride] | 39 ± 9

Next, values leading:

Row | inhibition at 1 µM [%] | Compound
35 | 53 | CCCCCCCCCCc1ccc(NC(=O)NCCCN)cc1 [11a, 1-(3-Aminopropyl)-3-(4-decylphenyl)urea Hydrochloride]
36 | 24 ± 9 | CCCCCCCCCCc1ccc(N(C)C(=O)N2CC3CC2CN3)cc1 (stereo not shown) [17b, N-(4-Decylphenyl)-N-methyl-2,5-diazabicyclo[2.2.1]heptane-2-carboxamide Hydrochloride]
37 | 72 ± 1 | CCCCCCCCCCc1ccc(NC(=O)N2CCCNCC2)cc1 [11m, N-(4-Decylphenyl)-1,4-diazepane-1-carboxamide Hydrochloride]
38 | 5 ± 3 | CCCCCCCCCCc1ccc(NC(=O)N2CC[N+](C)(C)CC2)cc1 [18b, 4-((4-Decylphenyl)carbamoyl)-1,1-dimethylpiperazin-1-ium Iodide]
39 | 35 | CCCCCCCCCCc1ccc(NC(=O)N2CC3CC2CN3)cc1 (stereo not shown) [11j, N-(4-Decylphenyl)-2,5-diazabicyclo[2.2.1]heptane-2-carboxamide Hydrochloride]
40 | 39 ± 4 | CCCCCCCCCCc1ccc(C(=O)N(C)CCCN)cc1 [13a, N-(3-Aminopropyl)-4-decyl-N-methylbenzamide Hydrochloride]
41 | 13 ± 4 | CCCCCCCCCCc1ccc(N(C)C(=O)N2CCNCC2)cc1 [17a, N-(4-Decylphenyl)-N-methylpiperazine-1-carboxamide Hydrochloride]
42 | 59 ± 2 | CCCCCCCCCCc1ccc(NC(=O)N2CCC(N)CC2)cc1 [11g, 4-Amino-N-(4-decylphenyl)piperidine-1-carboxamide Hydrochloride]
43 | 51 | CCCCCCCCCCc1ccc(NC(=O)OC2CCNCC2)cc1 [8f, Piperidin-4-yl (4-Decylphenyl)carbamate Hydrochloride]
